Laboratory results published in the NIST ThermoML archive (doi:10.1016/j.jct.2012.03.016).
“And” between values parts separate entries of the source, which are not always exact repeats. Equal values may be shown once. Numbers after ± are expanded uncertainties.

Experiments:
[1] = Liquid, Closed cell (Static) method
[2] = excess molar enthalpy (molar enthalpy of mixing); xn = mol fraction of the nth substance listed; conditions: 303.15 K, 101.3 kPa, Liquid, Calvet calorimetry

## C=CCCCC [hex-1-ene]
[1]; 263.15 K
  vapor or sublimation pressure: 4.46 ± 0.09 kPa
[1]; 263.45 K
  vapor or sublimation pressure: 4.5 ± 0.1 kPa
[1]; 273.15 K
  vapor or sublimation pressure: 7.716 ± 0.16 kPa
[1]; 273.32 K
  vapor or sublimation pressure: 7.7 ± 0.2 kPa
[1]; 283.15 K
  vapor or sublimation pressure: 12.71 ± 0.26 kPa
[1]; 283.24 K
  vapor or sublimation pressure: 12.8 ± 0.3 kPa
[1]; 293.15 K
  vapor or sublimation pressure: 20.08 ± 0.4 kPa
[1]; 293.22 K
  vapor or sublimation pressure: 20.1 ± 0.4 kPa
[1]; 303.15 K
  vapor or sublimation pressure: 30.54 ± 0.61 kPa
[1]; 303.22 K
  vapor or sublimation pressure: 30.6 ± 0.6 kPa
[1]; 313.15 K
  vapor or sublimation pressure: 44.96 ± 0.9 kPa
[1]; 313.2 K
  vapor or sublimation pressure: 45 ± 0.9 kPa
[1]; 323.15 K
  vapor or sublimation pressure: 64.28 ± 1.3 kPa
[1]; 323.19 K
  vapor or sublimation pressure: 64.4 ± 1.3 kPa
[1]; 333.15 K
  vapor or sublimation pressure: 89.55 ± 1.8 kPa
[1]; 333.23 K
  vapor or sublimation pressure: 89.7 ± 1.8 kPa

## CCCCOC [butyl methyl ether] + C=CCCCC
[2]; x2 = 0.0997
  excess molar enthalpy: 0.0055 ± 0.00239 kcal/mol
[2]; x2 = 0.1966
  excess molar enthalpy: 0.011 ± 0.00239 kcal/mol
[2]; x2 = 0.2897
  excess molar enthalpy: 0.0152 ± 0.00239 kcal/mol
[2]; x2 = 0.3935
  excess molar enthalpy: 0.0193 ± 0.00239 kcal/mol
[2]; x2 = 0.4933
  excess molar enthalpy: 0.0214 ± 0.00239 kcal/mol
[2]; x2 = 0.5922
  excess molar enthalpy: 0.0217 ± 0.00239 kcal/mol
[2]; x2 = 0.694
  excess molar enthalpy: 0.0205 ± 0.00239 kcal/mol
[2]; x2 = 0.7912
  excess molar enthalpy: 0.0169 ± 0.00239 kcal/mol
[2]; x2 = 0.8863
  excess molar enthalpy: 0.0105 ± 0.00239 kcal/mol

## COC(C)(C)C [2-methoxy-2-methylpropane]
[1]; 263.15 K
  vapor or sublimation pressure: 6.245 ± 0.13 kPa
[1]; 263.53 K
  vapor or sublimation pressure: 6.4 ± 0.1 kPa
[1]; 273.15 K
  vapor or sublimation pressure: 10.67 ± 0.22 kPa
[1]; 273.34 K
  vapor or sublimation pressure: 10.8 ± 0.2 kPa
[1]; 283.15 K
  vapor or sublimation pressure: 17.41 ± 0.35 kPa
[1]; 283.27 K
  vapor or sublimation pressure: 17.6 ± 0.4 kPa
[1]; 293.15 K
  vapor or sublimation pressure: 27.25 ± 0.55 kPa
[1]; 293.25 K
  vapor or sublimation pressure: 27.4 ± 0.6 kPa
[1]; 303.15 K
  vapor or sublimation pressure: 41.16 ± 0.83 kPa
[1]; 303.22 K
  vapor or sublimation pressure: 41.2 ± 0.8 kPa
[1]; 313.15 K
  vapor or sublimation pressure: 60.22 ± 1.2 kPa
[1]; 313.24 K
  vapor or sublimation pressure: 60.3 ± 1.2 kPa
[1]; 323.15 K
  vapor or sublimation pressure: 85.65 ± 1.7 kPa
[1]; 323.21 K
  vapor or sublimation pressure: 85.8 ± 1.7 kPa
[1]; 333.15 K
  vapor or sublimation pressure: 118.78 ± 2.4 kPa
[1]; 333.19 K
  vapor or sublimation pressure: 119.2 ± 2.4 kPa

## CCCCOC [butyl methyl ether]
[1]; 262.99 K
  vapor or sublimation pressure: 3.2 ± 0.1 kPa
[1]; 263.15 K
  vapor or sublimation pressure: 3.194 ± 0.065 kPa
[1]; 273.04 K
  vapor or sublimation pressure: 5.7 ± 0.1 kPa
[1]; 273.15 K
  vapor or sublimation pressure: 5.704 ± 0.12 kPa
[1]; 283.07 K
  vapor or sublimation pressure: 9.6 ± 0.2 kPa
[1]; 283.15 K
  vapor or sublimation pressure: 9.688 ± 0.2 kPa
[1]; 293.1 K
  vapor or sublimation pressure: 15.6 ± 0.3 kPa
[1]; 293.15 K
  vapor or sublimation pressure: 15.74 ± 0.32 kPa
[1]; 303.12 K
  vapor or sublimation pressure: 24.4 ± 0.5 kPa
[1]; 303.15 K
  vapor or sublimation pressure: 24.61 ± 0.5 kPa
[1]; 313.15 K
  vapor or sublimation pressure: 37.17 ± 0.75 kPa
[1]; 313.16 K
  vapor or sublimation pressure: 36.8 ± 0.7 kPa and 36.9 ± 0.7 kPa
[1]; 323.15 K
  vapor or sublimation pressure: 54.46 ± 1.1 kPa
[1]; 323.2 K
  vapor or sublimation pressure: 54 ± 1.1 kPa
[1]; 333.15 K
  vapor or sublimation pressure: 77.64 ± 1.7 kPa
[1]; 333.25 K
  vapor or sublimation pressure: 74.1 ± 1.6 kPa

## C=CCCCC [hex-1-ene] + COC(C)(C)C
[2]; x1 = 0.1491
  excess molar enthalpy: 0.0209 ± 0.00239 kcal/mol
[2]; x1 = 0.2162
  excess molar enthalpy: 0.0271 ± 0.00239 kcal/mol
[2]; x1 = 0.3039
  excess molar enthalpy: 0.033 ± 0.00239 kcal/mol
[2]; x1 = 0.4052
  excess molar enthalpy: 0.0369 ± 0.00239 kcal/mol
[2]; x1 = 0.4892
  excess molar enthalpy: 0.0384 ± 0.00239 kcal/mol
[2]; x1 = 0.6174
  excess molar enthalpy: 0.0379 ± 0.00239 kcal/mol
[2]; x1 = 0.7128
  excess molar enthalpy: 0.0343 ± 0.00239 kcal/mol
[2]; x1 = 0.788
  excess molar enthalpy: 0.0295 ± 0.00239 kcal/mol
[2]; x1 = 0.8837
  excess molar enthalpy: 0.0198 ± 0.00239 kcal/mol
